For the assay, the target named is T1, FXR (Homo sapiens, UniProt Q96RI1).
T1 construct: expressed in transfected cells; host or cells: HEK293T
T1 sequence (Q96RI1 212-476 isoform Q96RI1-1 limits assumed): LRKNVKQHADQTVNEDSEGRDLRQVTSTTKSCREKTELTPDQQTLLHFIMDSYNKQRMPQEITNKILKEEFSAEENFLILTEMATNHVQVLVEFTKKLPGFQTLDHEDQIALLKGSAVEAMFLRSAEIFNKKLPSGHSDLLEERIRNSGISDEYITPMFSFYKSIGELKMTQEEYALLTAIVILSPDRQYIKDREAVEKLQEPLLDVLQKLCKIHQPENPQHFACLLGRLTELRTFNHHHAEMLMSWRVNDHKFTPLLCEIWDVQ
The assay can be described thus: FXR agonistic activity by GAL4-FXR-LBD reporter gene (Dual-Glo luciferase) detection in HEK293T cells. It counts as cell-based. Conditions: for EC50: HEK293T cells, pGAL4-FXR-LBD/pG5-Luc reporter, 24 h treatment. From the text: Methods for Detecting FXR Agonistic Activity of Compounds Based on Reporter Gene Activity Detection Methods: The pGAL4-FXR-LBD and pG5-Luc plasmids used in the reporter gene detection system were constructed according to conventional molecular cloning methods, including main steps: the FXR (NM_001206979.2) cDNA sequence corresponding to the amino acid sequence of FXR-LBD (212-476AA) was inserted into pGAL4 vector between BamHI and Notl restriction sites using PCR technology to obtain pGAL4-FXR-LBD; pG5-Luc and phRL-TK plasmids were donated by Shanghai Institute of Materia Medica, Chinese Academy of Sciences; the plasmid was transformed into DH5a Escherichia coli by the CaC12 method, and after further culture and amplification, the corresponding plasmid DNA was purified and obtained with a plasmid extraction kit (TIANGEN, #D107). HEK293T cells were seeded in 96-well plates at a density of 1×10^4/well one day before plasmid transfection. Cell transfection was performed according to the instructions of the transfection reagent FuGENE® HD (Promega, #E2311), including main steps: […] 0.25 uL of FuGENE® HD was added, mixed well and let stand for 5 min at room temperature; then 10 uL of this mixture was added to the cell well containing 100 uL of culture medium. […] Then the diluted compounds were added to the cell culture medium for treatment for 24 h. 2 duplicate wells were set up in total. […] After cells were treated with compounds for 24 h, detections were performed according to the instructions of the Dual-Glo® Luciferase Assay System (Promega, #E2940), including main steps: […] then 40 uL of Dual-Glo® Stop & Glo® reagent were added and shaken at room temperature for 10 min; the luminescence signal value of Renilla luciferase (Renilla-Luc) was detected by the MD i3x multifunctional microplate reader; The ratio of Firefly-Luc/Renilla-Luc was used as the activating activity of the compound on FXR, and normalized by the ratio of the solvent DMSO group. The dose- response curves were fitted with four parameters using GraphPad Prism 6.0 software, and EC50 values were calculated.
(Reporter assays use an easily measured gene product as a stand-in for the process of interest.)

[1] abbreviates: Cellular Level Activity EC50(nM) of FXR.
The mark [2] stands for this setting: read-out: Cellular Level Activity EC50(nM) of FXR.
The mark [3] stands for this setting: HEK293T reporter gene assay, read-out: EC50 values (FXR agonistic activity).
The mark [4] stands for this setting: EC50 values (FXR agonistic activity), HEK293T reporter gene assay.

The source of these data is patent US20230295141A1, “FXR SMALL MOLECULE AGONIST, THE PREPARATION AND USE THEREOF” (Cascade Pharmaceuticals, Inc., priority 2022, published 2023).

pEC50: −log10 of the molar value. Like-named read-outs stand apart in the source and are kept apart here.

Broadly, the EC50 is the midpoint of the concentration-response curve. Turning to `O=c1[nH]c(-c2ccc(N3[C@@H]4CC[C@H]3C[C@@H](OCc3c(-c5c(Cl)cccc5Cl)noc3C3CC3)C4)cc2F)no1` [Control 1, reference compound], the EC50 under setting [1] lay in the range of 5 to 10 nM.

Consider `[2H]C([2H])(O[C@H]1C[C@H]2CC[C@@H](C1)N2c1ccc(-c2noc(=O)[nH]2)c(C(F)(F)F)c1)c1c(-c2c(Cl)cccc2Cl)noc1C1CC1` [Example 7], for which the EC50 under setting [2] is 5 to 10 nM. In general, pEC50 refers to −log10 of the EC50, conventionally taken in molar units. On to `[2H]C([2H])(O[C@H]1C[C@H]2CC[C@@H](C1)N2c1ccc(-c2noc(=O)[nH]2)cc1)c1c(-c2c(Cl)cccc2Cl)noc1C1CC1` [Example 1], for which the EC50 under setting [2] is under 5 nM. The pEC50 under setting [3] was over 8.30.

Take `[2H]C([2H])(O[C@H]1C[C@H]2CC[C@@H](C1)N2c1ccc(-c2noc(=O)[nH]2)c(F)c1)c1c(-c2ccccc2OC(F)(F)F)noc1C1CC1` [Example 9]: the EC50 under setting [2] fell in the range of 5 to 10 nM. Take `[2H]C([2H])(O[C@H]1C[C@H]2CC[C@@H](C1)N2c1ccc(-c2noc(=O)[nH]2)nc1)c1c(-c2c(Cl)cccc2Cl)noc1C1CC1` [Example 2]: the EC50 under setting [2] was under 5 nM. The pEC50 under setting [3] is over 8.30. `[2H]C([2H])(O[C@H]1C[C@H]2CC[C@@H](C1)N2c1ccc(-c2noc(=O)[nH]2)c(OC)c1)c1c(-c2c(Cl)cccc2Cl)noc1C1CC1` [Example 6]: the EC50 under setting [2] lay in the range of 5 to 10 nM. Turning to `[2H]C(O[C@H]1C[C@H]2CC[C@@H](C1)N2c1ccc(-c2noc(=O)[nH]2)c(F)c1)c1c(-c2c(Cl)cccc2Cl)noc1C1CC1` (stereo partly drawn) [Example 4], under setting [1], the EC50 is under 5 nM. The same compound had a pEC50 under setting [4] of over 8.30. Take `[2H]C([2H])(O[C@H]1C[C@H]2CC[C@@H](C1)N2c1ccc(-c2noc(=O)[nH]2)c(F)c1)c1c(-c2ccccc2C(F)(F)F)noc1C1CC1` [Example 8]: under setting [2], the EC50 fell in the range of 5 to 10 nM. Turning to `[2H]C([2H])(O[C@H]1C[C@H]2CC[C@@H](C1)N2c1ccc(-c2noc(=O)[nH]2)c(C)c1)c1c(-c2c(Cl)cccc2Cl)noc1C1CC1` [Example 5], under setting [2], the EC50 was in the range of 5 to 10 nM. Take `[2H]C([2H])(O[C@H]1C[C@H]2CC[C@@H](C1)N2c1ccc(-c2noc(=O)[nH]2)c(F)c1)c1c(-c2c(Cl)cccc2Cl)noc1C1CC1` [Example 3]: under setting [1], the EC50 is under 5 nM. The same compound gave a pEC50 under setting [4] of over 8.30. Further, the “FXR agonistic / cellular level activity, in words” value (HEK293T reporter gene assay, comparison with LJN452 and Control 1) is recorded as “significantly improved activity”.
